{"source": "PubChem BioAssay (NCI)", "assay_in_all_cases": "DTP human tumour cell line panel, 48 h", "key": {"[1]": {"system": "HT29 colon"}, "[2]": {"system": "TK-10 renal"}, "[3]": {"system": "HCC-2998 colon"}, "[4]": {"system": "MDA-N"}, "[5]": {"system": "NCI/ADR-RES ovarian"}, "[6]": {"system": "UACC-257 melanoma"}, "[7]": {"system": "SW-620 colon"}, "[8]": {"system": "SNB-19 CNS"}, "[9]": {"system": "KM12 colon"}, "[10]": {"system": "DU-145 prostate"}, "[11]": {"system": "CCRF-CEM leukemia"}, "[12]": {"system": "M14 melanoma"}, "[13]": {"system": "OVCAR-5 ovarian"}, "[14]": {"system": "HCT-116 colon"}, "[15]": {"system": "RXF 393 renal"}, "[16]": {"system": "786-0 renal"}, "[17]": {"system": "SN12C renal"}, "[18]": {"system": "LOX IMVI melanoma"}, "[19]": {"system": "OVCAR-3 ovarian"}, "[20]": {"system": "SK-MEL-28 melanoma"}, "[21]": {"system": "CAKI-1 renal"}, "[22]": {"system": "SF-268 CNS"}, "[23]": {"system": "HOP-62 NSCLC"}, "[24]": {"system": "U251 CNS"}, "[25]": {"system": "SNB-75 CNS"}, "[26]": {"system": "ACHN renal"}, "[27]": {"system": "PC-3 prostate"}, "[28]": {"system": "HL-60(TB) leukemia"}, "[29]": {"system": "MDA-MB-231 breast"}, "[30]": {"system": "EKVX NSCLC"}, "[31]": {"system": "K-562 leukemia"}, "[32]": {"system": "SK-MEL-5 melanoma"}, "[33]": {"system": "UO-31 renal"}, "[34]": {"system": "MALME-3M melanoma"}, "[35]": {"system": "NCI-H522 lung"}, "[36]": {"system": "SF-539 CNS"}, "[37]": {"system": "HCT-15 colon"}, "[38]": {"system": "SR leukemia"}, "[39]": {"system": "MDA-MB-435"}, "[40]": {"system": "SF-295 CNS"}, "[41]": {"system": "NCI-H226 lung"}, "[42]": {"system": "NCI-H23 lung"}, "[43]": {"system": "OVCAR-8 ovarian"}, "[44]": {"system": "T-47D breast"}, "[45]": {"system": "RPMI-8226 leukemia"}, "[46]": {"system": "SK-OV-3 ovarian"}, "[47]": {"system": "MCF7 breast"}, "[48]": {"system": "IGROV1 ovarian"}, "[49]": {"system": "MOLT-4 leukemia"}, "[50]": {"system": "A549 NSCLC"}, "[51]": {"system": "UACC-62 melanoma"}, "[52]": {"system": "COLO 205 colon"}}, "note": "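Tested at 5 concentrations; 48 h exposure; 96-well plates; endpoints linearly interpolated, else capped at highest concentration. TGI: total growth inhibition.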", "data": [{"compound": "C=C(C)C#CC(O)(C(=O)OC1CCN(C)CC1)C(C)C", "note": "(configuration not stated)", "values": [{"measurement": "TGI", "setting": "[1]", "value": "> 100", "unit": "µM"}, {"measurement": "TGI", "setting": "[2]", "value": "> 100", "unit": "µM"}, {"measurement": "TGI", "setting": "[3]", "value": "> 100", "unit": "µM"}, {"measurement": "TGI", "setting": "[4]", "value": "> 100", "unit": "µM"}, {"measurement": "TGI", "setting": "[5]", "value": 85.6, "unit": "µM"}, {"measurement": "TGI", "setting": "[6]", "value": "> 100", "unit": "µM"}, {"measurement": "TGI", "setting": "[7]", "value": "> 100", "unit": "µM"}, {"measurement": "TGI", "setting": "[8]", "value": "> 100", "unit": "µM"}, {"measurement": "TGI", "setting": "[9]", "value": "> 100", "unit": "µM"}, {"measurement": "TGI", "setting": "[10]", "value": "> 100", "unit": "µM"}, {"measurement": "TGI", "setting": "[11]", "value": "> 100", "unit": "µM"}, {"measurement": "TGI", "setting": "[12]", "value": "> 100", "unit": "µM"}, {"measurement": "TGI", "setting": "[13]", "value": "> 100", "unit": "µM"}, {"measurement": "TGI", "setting": "[14]", "value": "> 100", "unit": "µM"}, {"measurement": "TGI", "setting": "[15]", "value": "> 100", "unit": "µM"}, {"measurement": "TGI", "setting": "[16]", "value": "> 100", "unit": "µM"}, {"measurement": "TGI", "setting": "[17]", "value": "> 100", "unit": "µM"}, {"measurement": "TGI", "setting": "[18]", "value": "> 100", "unit": "µM"}, {"measurement": "TGI", "setting": "[19]", "value": "> 100", "unit": "µM"}, {"measurement": "TGI", "setting": "[20]", "value": "> 100", "unit": "µM"}, {"measurement": "TGI", "setting": "[21]", "value": "> 100", "unit": "µM"}, {"measurement": "TGI", "setting": "[22]", "value": "> 100", "unit": "µM"}, {"measurement": "TGI", "setting": "[23]", "value": "> 100", "unit": "µM"}, {"measurement": "TGI", "setting": "[24]", "value": "> 100", "unit": "µM"}, {"measurement": "TGI", "setting": "[25]", "value": "> 100", "unit": "µM"}, {"measurement": "TGI", "setting": "[26]", "value": "> 100", "unit": "µM"}, {"measurement": "TGI", "setting": "[27]", "value": "> 100", "unit": "µM"}, {"measurement": "TGI", "setting": "[28]", "value": "> 100", "unit": "µM"}, {"measurement": "TGI", "setting": "[29]", "value": "> 100", "unit": "µM"}, {"measurement": "TGI", "setting": "[30]", "value": "> 100", "unit": "µM"}, {"measurement": "TGI", "setting": "[31]", "value": "> 100", "unit": "µM"}, {"measurement": "TGI", "setting": "[32]", "value": "> 100", "unit": "µM"}, {"measurement": "TGI", "setting": "[33]", "value": "> 100", "unit": "µM"}, {"measurement": "TGI", "setting": "[34]", "value": "> 100", "unit": "µM"}, {"measurement": "TGI", "setting": "[35]", "value": "> 100", "unit": "µM"}, {"measurement": "TGI", "setting": "[36]", "value": "> 100", "unit": "µM"}, {"measurement": "TGI", "setting": "[37]", "value": "> 100", "unit": "µM"}, {"measurement": "TGI", "setting": "[38]", "value": "> 100", "unit": "µM"}, {"measurement": "TGI", "setting": "[39]", "value": "> 100", "unit": "µM"}, {"measurement": "TGI", "setting": "[40]", "value": "> 100", "unit": "µM"}, {"measurement": "TGI", "setting": "[41]", "value": "> 100", "unit": "µM"}, {"measurement": "TGI", "setting": "[42]", "value": "> 100", "unit": "µM"}, {"measurement": "TGI", "setting": "[43]", "value": "> 100", "unit": "µM"}, {"measurement": "TGI", "setting": "[44]", "value": "> 100", "unit": "µM"}, {"measurement": "TGI", "setting": "[45]", "value": "> 100", "unit": "µM"}, {"measurement": "TGI", "setting": "[46]", "value": "> 100", "unit": "µM"}, {"measurement": "TGI", "setting": "[47]", "value": "> 100", "unit": "µM"}, {"measurement": "TGI", "setting": "[48]", "value": "> 100", "unit": "µM"}, {"measurement": "TGI", "setting": "[49]", "value": "> 100", "unit": "µM"}, {"measurement": "TGI", "setting": "[50]", "value": "> 100", "unit": "µM"}, {"measurement": "TGI", "setting": "[51]", "value": "> 100", "unit": "µM"}, {"measurement": "TGI", "setting": "[52]", "value": "> 100", "unit": "µM"}]}]}
